According to ChEMBL document CHEMBL4665895, “Covalent Bridging of Corilagin Improves Antiferroptosis Activity: Comparison with 1,3,6-Tri-O-galloyl-β-d-glucopyranose” (ACS Med Chem Lett, 2020):
pIC50: −log10 of the molar value. One block for each compound: values may come before it. Activity calls are given as the source filed them. The rule behind the calls is not given here.

How the values were obtained:
[1] = tested on: Bone marrow cell; assay: Anti-ferroptosis activity against erastin-induced ferroptosis in Sprague-Dawley rat bmMSC cells assessed as increase in cell viability at 0.47 to 4.7 uM preincubated for 12 hrs followed by compound addition and measured after 12 hrs by CCK8 assay; assay type: functional, cell-based; conditions: dose microM 0.47-4.7, time 12.0 hrs
[2] = Antioxidant activity assessed as DPPH free radical scavenging activity after 5 mins by microplate reader based assay; assay type: functional
[3] = Antioxidant activity in pH 7.4 phosphate buffer assessed as PTIO radical scavenging activity after 1 hr by microplate reader based assay; assay type: functional
[4] = Metal chelating activity assessed as Fe2+-compound complex formation by measuring red shift by UV-visible spectrophotometry
[5] = Metal chelating activity assessed as Fe2+-compound complex formation incubated for 5 mins by colorimetry
[6] = Anti-ferroptosis activity against erastin-induced ferroptosis in Sprague-Dawley rat bmMSC cells assessed as cellular death at 4.7 uM after 1 hr by AnnexinV-FITC/propidium iodide staining-based flow cytometric analysis (reference value: 3.73%); assay type: functional, Bone marrow cell
[7] = Antioxidant activity assessed as ferric ion reducing activity using FeCl3.H2O and TPTZ incubated for 30 mins by FRAP assay; assay type: functional
[8] = Antioxidant activity in pH 4.5 phosphate buffer assessed as PTIO radical scavenging activity after 1 hr by microplate reader based assay; assay type: functional
[9] = Anti-ferroptosis activity against erastin-induced ferroptosis in Spargue-Dawley rat bmMSCs cells assessed as cell viability at 4.7 uM after 1 hr by AnnexinV-FITC/propidium iodide staining based flow cytometry analysis (reference value: 65.9%); assay type: functional; conditions: Bone marrow cell, read-out: Activity
[10] = Anti-ferroptosis activity against erastin-induced ferroptosis in Sprague-Dawley rat bmMSC cells assessed as late cell death at 4.7 uM after 1 hr by AnnexinV-FITC/propidium iodide staining-based flow cytometric analysis (reference value: 19.9%); assay type: functional, Bone marrow cell
[11] = Anti-ferroptosis activity against erastin-induced ferroptosis in Sprague-Dawley rat bmMSC cells assessed as early cell death at 4.7 uM after 1 hr by AnnexinV-FITC/propidium iodide staining-based flow cytometric analysis (reference value: 10.4%); assay type: functional, Bone marrow cell
[12] = tested on: Bone marrow cell; assay: Anti-ferroptosis activity against erastin-induced ferroptosis in Sprague-Dawley rat bmMSC cells assessed as inhibition of lipid peroxidation at 3 ug/ml preincubated for 12 hrs followed by compound addition and measured after 12 hrs by C11-Bodipy fluorescent dye based microscopic analysis; assay type: functional; conditions: dose 3.0 µg/ml
[13] = Antioxidant activity assessed as compound-DPPH adduct formation with covalent bridging by UHPLC-ESI-Q-TOF-MS analysis; assay type: functional
[14] = Potency index, ratio of trolox IC50 to test compound IC50 for antioxidant activity assessed as DPPH radical scavenging activity; assay type: functional

SMILES: O=C(OC[C@H]1O[C@@H](OC(=O)c2cc(O)c(O)c(O)c2)[C@H](O)[C@@H](OC(=O)c2cc(O)c(O)c(O)c2)[C@@H]1O)c1cc(O)c(O)c(O)c1
- Activity [1]: Active
- pIC50 [2]: 6.00
- inhibition [2]: Dose-dependent effect
- pIC50 [3]: 3.94
- inhibition [3]: Dose-dependent effect
- Activity [4]: Active
- pIC50 [5]: 4.96
- inhibition [5]: Dose-dependent effect
- Activity [6]: 2.2%
- pIC50 [7]: 4.46
- inhibition [7]: Dose-dependent effect
- pIC50 [8]: 3.54
- inhibition [8]: Dose-dependent effect
- viability at 4.7 µM [9]: 78.4%
- Activity [10]: 9%
- Activity [11]: 10.3%
- Activity [12]: Active
- Activity [13]: Active
- Ratio IC50 [14]: 6.5

- pIC50 [2]: 5.15
- pIC50 [3]: 3.35
- pIC50 [7]: 4.09
- pIC50 [8]: 3.54
SMILES: Cc1c(C)c2c(c(C)c1O)CCC(C)(C(=O)O)O2 (racemic) [TROLOX]

SMILES: O=C(O[C@@H]1O[C@@H]2COC(=O)c3cc(O)c(O)c(O)c3-c3c(cc(O)c(O)c3O)C(=O)O[C@H]([C@H]1O)[C@@H]2O)c1cc(O)c(O)c(O)c1 [CORILAGIN]
- Activity [1]: Active
- pIC50 [2]: 6.00
- inhibition [2]: Dose-dependent effect
- pIC50 [3]: 4.03
- inhibition [3]: Dose-dependent effect
- Activity [4]: Active
- pIC50 [5]: 5.15
- inhibition [5]: Dose-dependent effect
- Activity [6]: 2.7%
- pIC50 [7]: 4.92
- inhibition [7]: Dose-dependent effect
- pIC50 [8]: 3.69
- inhibition [8]: Dose-dependent effect
- viability at 4.7 µM [9]: 80.2%
- Activity [10]: 7.8%
- Activity [11]: 9.2%
- Activity [12]: Active
- Activity [13]: Active
- Ratio IC50 [14]: 8

- pIC50 [5]: 4.85
SMILES: O=C([O-])CC(O)(CC(=O)[O-])C(=O)[O-].[Na+].[Na+].[Na+] [SODIUM CITRATE]
